# Results reported in patent publication US20160227778A1, “SEED DRESSING FOR CONTROLLING PHYTOPATHOGENIC FUNGI” (BAYER INTELLECTUAL PROPERTY GMBH, priority 2004, published 2016).
# Tests used:
# Format in all cases: in vivo
# Rhizoctonia solani [1] = test: Rhizoctonia solani test (cotton)/seed treatment; settings: dry seed dressing, application rate 50 g/100 kg of seed, evaluated after 7-8 days, method of Abbot
# Procedure: Rhizoctonia solani Test (Cotton)/Seed Treatment The active compounds are applied as dry seed dressing. This is prepared by extending the active compounds in question with ground minerals to give a finely pulverulent mixture which ensures uniform distribution on the seed surface. To dress the seed, the seed together with the seed dressing is shaken for 3 minutes in a closed glass bottle. 2×50 seed corns are sown in standardized soil in seed trays. Perlite infected with Rhizoctonia solani (5 ml/seed tray) is scattered between the seed and covered with Lecaton, and the seeds are then cultivated in a greenhouse at a temperature of about 22° C. and 15 hours of light per day. After 7-8 days, all the emerged and diseased plants are evaluated. The effect is calculated by the method of Abbot. 0% means an efficacy which corresponds to that of the control, whereas an efficacy of 100% means that no infection is observed.
# Rhizoctonia solani [2] = test: Rhizoctonia solani test (rice)/seed treatment; settings: rice (cultivar Koshihikari), seed dressing, application rate 200 g/100 kg of seed, evaluated seven days after inoculation
# Procedure: Rhizoctonia solani Test (Rice)/Seed Treatment Rice seed (cultivar Koshihikari) is soaked at 15° C. in distilled water for 10 days, transferred into fresh water and, whilst being ventilated, soaked at 32° C. for 1 day. The seed is then dried at room temperature for a number of hours. 7.6 mg of the test substance are dissolved in 200 μl of acetone in a test vessel, an aliquot of seed (corresponding to 3.8 g of dry seed) is added, the samples mixed and the acetone is aspirated. The seed is sown on soil in a plastic vessel having a diameter of 7.5 cm and cultivated in an incubator at 32° C. with high atmospheric humidity in the dark for 3 days. The seedlings are then cultivated in a greenhouse at on average 21° C. for 2 weeks. In each case 5 seedlings are transferred into 5 plastic vessels having a diameter of 12 cm and cultivated in a greenhouse at on average 25° C. for 5-6 weeks. Mycelia of Rhizoctonia solani which had been grown on sterile barley corns are placed at the foot of the rice plant (5 cm from the soil surface) and incubated in a glass chamber with high atmospheric humidity at on average 27° C. Seven days after the inoculation, the degree of infection is evaluated and the efficacy is calculated. [table]
# Pyrenophora graminea = Pyrenophora graminea test (barley)/seed treatment/outdoor trial; settings: summer barley, infected seed, outdoor trial, application rate 10 g/100 kg of seed, evaluated at begin of heading
# Procedure: Pyrenophora graminea Test (Barley)/Seed Treatment/Outdoor Trial
# Cereal species: Summer barley Plot size: 2 m^2 Amount of seed per plot: 40 g Number of repetitions: 3 Development stage at the time of evaluation: Begin of heading
# The active compounds are applied as a commercial formulation.
# For dressing, the preparation is initially charged in a dressing beaker and placed on a dressing shaker. The infected seed is added and shaken for about 2-3 min, until homogenization is achieved.
# After preparing the soil in a customary manner, outdoor sowing is carried out at a time which favours infection by the disease.
# Evaluation is carried out at a time when all the disease symptoms are clearly present. 0% means an efficacy which corresponds to that of the control, whereas an efficacy of 100% means that no infection is observed.
# Ustilago nuda = Ustilago nuda test (barley)/seed treatment/outdoor trial; settings: summer barley, infected seed, outdoor trial, application rate 10 g/100 kg of seed, evaluated at begin to middle of blossom
# Procedure: Ustilago nuda Test (Barley)/Seed Treatment/Outdoor Trial Cereal species: Summer barley Amount of seed per plot: 40 g Plot size: 2 m^2 Number of repetitions: 3 Development stage: Begin to middle of blossom The active compounds are applied as a commercial formulation. For dressing, the preparation is initially charged in a dressing beaker and placed on a dressing shaker. The infected seed is added and shaken for about 2-3 min, until homogenization is achieved. After preparing the soil in a customary manner, outdoor sowing is carried out at a time which favours infection by the disease. Evaluation is carried out at a time when all the disease symptoms are clearly present. 0% means an efficacy which corresponds to that of the control, whereas an efficacy of 100% means that no infection is observed.
smiles,measurement,setting,value
Cc1nn(C)c(F)c1C(=O)Nc1ccccc1C(C)CC(C)C (stereo not shown) [drawing 46],Efficacy in %,Rhizoctonia solani [1],100%
CC(C)CC(C)c1sccc1NC(=O)c1cn(C)nc1C(F)(F)F (stereo not shown) [drawing 47],Efficacy in %,Rhizoctonia solani [1],100%
Cc1nn(C)c(F)c1C(=O)Nc1ccccc1C(C)CC(C)C (stereo not shown) [drawing 50],Efficacy in %,Rhizoctonia solani [2],91%
CC(C)CC(C)c1sccc1NC(=O)c1cn(C)nc1C(F)(F)F (stereo not shown) [drawing 49],Efficacy in %,Pyrenophora graminea,97%
Cc1nn(C)c(F)c1C(=O)Nc1ccccc1C(C)CC(C)C (stereo not shown) [drawing 51],Efficacy in %,Ustilago nuda,100%
CC(C)CC(C)c1sccc1NC(=O)c1cn(C)nc1C(F)(F)F (stereo not shown) [drawing 52],Efficacy in %,Ustilago nuda,99%
Cc1nn(C)c(F)c1C(=O)Nc1ccccc1C(C)CC(C)C (stereo not shown) [drawing 48],Efficacy in %,Pyrenophora graminea,97%
